Results on three compounds are retold here after patent US11141491B2, “PH-sensitive lipid nanoparticles for encapsulation of anticancer drugs and microRNA and use thereof” (National Yang-Ming University, priority 2018, dated 2021).

In data set [1] the test system is HCT116 cells. Kind of data set: Endocytosis mechanisms for uptake of DiI/Lip-RFKH. The format is cell-based, human. The following applies: 3 h-incubation, endocytosis inhibitor added.
A short description of data set [2]: pH-sensitive release (dialysis against PBS). It is filed as physicochemical. The following applies: both pH 7.4 and pH 6.5, 37° C. The method, then: Irinotecan- or miR-loaded formulations were placed in a dialysis bag (1,000-3,500 MWCO) and dialyzed separately against PBS at pH 7.4 and 6.5. At the indicated time, solution was withdrawn from the incubation medium. The irinotecan concentrations were determined by HPLC to calculate the cumulative drug release %.

The test system of data set [3] is IEC-6 cells. Put plainly: Cell viability, sulforhodamine B assay, IEC-6. It is filed as cell-based, rat. The following applies: noncancerous IEC-6 cells, 48 h, SRB. For orientation: Sulforhodamine B stains cellular protein and so reports cell mass.
In data set [4] the test system is HCT116 cells. Kind of data set: Cell viability, sulforhodamine B assay, HCT116. The format is cell-based, human. The following applies: 48 h, SRB. The procedure:
The cytotoxicity of formulations in rat small intestinal epithelial IEC-6 cells and human colorectal cancer HCT116 cells was determined using a sulforhodamine B (SRB) assay. After 48-h incubation with various formulations, the cells were stained with SRB for 10 min. The absorbance at 540 nm was detected with a microplate TECAN reader.

The test system of data set [5] is CT26 tumor. Kind of data set: In vivo antitumor efficacy, IVIS and PET/CT imaging, body weight in CT26-bearing mice. The following applies: 28 days. The procedure: Male BALB/c mice at the age of 6 weeks with body weights of 20±2 g were purchased from National Laboratory Animal Center (Taipei, Taiwan) and maintained in an individual ventilation cage system. The animals were ensured free access to sterilized food and water. CT-26 (10^5 cells in 0.1 ml PBS) were injected subcutaneously into the right flank of mice to obtain tumor-bearing BALB/c mice. All processes performed on the animals were in accordance with the National Institutes of Health Guide for the Care and Use of Laboratory Animals and were approved by the National Yang-Ming University Animal Committee.
CT-26 cells (10^5 cells in 0.1 ml PBS) were injected subcutaneously into the right flank of mice to obtain tumor-bearing BALB/c mice. When tumor volume reached approximately 100 mm^3 (equation 4), the mice were randomly assigned to six groups (n=5 for each group). […] Mice were injected intravenously (IV) with Iri at 100 mg/kg and miR-200 at 1.25 mg/kg in different formulations every 7 days for 28 days. Fluorescence images were visualized one day after the final treatment using an IVIS […] (Caliper). […]
Tumor images were monitored using PET/CT. […]
Animal body weight and tumor size were detected every 3 or 4 days for 28 days. Tumor size was measured with a digital caliper and the tumor volume (V) was calculated (equation 4).

Data set [6] can be described thus: Biochemical tests, H&E staining and TUNEL assay in CT26 tumor-bearing mice. The format is in vivo. Particulars: 48 h after last treatment. The procedure: Tumor-bearing mice were treated as described above. Blood samples (170 μl) were taken from the orbital sinus of mice 48 h after the final treatment. After harvesting and centrifugation for 15 min, liver, kidney and heart functions were assessed by detecting the serum levels of glutamate pyruvate transaminase (GPT), creatinine (CRE), and creatine kinase-MB (CK-MB) using corresponding activity assay kits (Fujifilm, Tokyo, Japan) and a clinical dry chemistry analyzer (Fuji Dri-Chem 7000V, Fujifilm Corp.). Additionally, the tumors and intestines were fixed in 4% paraformaldehyde overnight, embedded in paraffin, and cut into 5-μm-thick sections for H&E staining, and the histology of these samples was examined using an Olympus microscope.
TUNEL assay was performed to assess in vivo apoptosis in CT26 tumor-bearing mice at 48 h after last treatment of different formulations.^[42] In brief, the samples were frozen and fixed in 4% paraformaldehyde for 20 min. After washing with PBS for 10 min, the samples were immersed on ice for 2 min. After mixing with reaction dispersion (50 μL) according to the manufacture's manual (In Situ Cell Death Detection Kit, Roche, Germany), the section samples were stained with Hoechst in the nuclei for comparison and monitored using CLSM.

A short description of data set [7]: Biodistribution of irinotecan in CT26/tk-luc-bearing mice. It is filed as in vivo. Particulars: UV spectrophotometer. The procedure:
The biodistribution of irinotecan of different formulations in CT26-bearing mice was analyzed by UV spectrophotometer (*statistical significance at P<0.05; **statistical significance at P<0.01; ***statistical significance at P<0.001).

Data set [8] can be described thus: Biodistribution of irinotecan in SAS-luc-bearing nude mice. The format is in vivo. Particulars: UV spectrophotometer. The procedure:
The biodistribution of irinotecan of different formulations in SAS-bearing mice was analyzed with UV spectrophotometer. (*statistical significance at P<0.05; **statistical significance at P<0.01; ***statistical significance at P<0.001).

For data set [9], the system named is rat blood cells.

Take `CN(C)CCCN1c2ccccc2Sc2ccc(Cl)cc21` [chlorpromazine]: the “relative fluorescence intensity % of DiI/Lip-RFKH” value in data set [1] is “significant decreases”.
Take `CCc1c2c(nc3ccc(OC(=O)N4CCC(N5CCCCC5)CC4)cc13)-c1cc3c(c(=O)n1C2)COC(=O)[C@]3(O)CC` [irinotecan]: in [2], the “release within 24 h” value is 100%. The “cytotoxicity to IEC-6 cells” value in data set [3] was “≈ 30%”. In addition, the “cytotoxicity / viability of HCT116 cells” value in [4] (HCT116 cells) was “concentration-dependent inhibition”. Besides, in [4] (irinotecan at 4×10^−6 M), the “cytotoxicity in HCT116 cells” value was “≈ 20%”. Also, the body weight result in data set [5] is “continuous decrease”. Moreover, in data set [6], the “serum CKMB level” value is listed as “provoked”, the “serum CRE level” value is “provoked” and the “serum GPT level” value is reported as “provoked”. In data set [7], the biodistribution of irinotecan entry is “mainly in the liver, kidney, and intestines”. Also, the biodistribution of irinotecan entry in [8] was “majorly in the liver, kidney, and intestines”. For the same compound, the hemolysis result in [9] was “≈ 10%”.
In the case of poly-L-lysine, in data set [1], the “relative fluorescence intensity % of DiI/Lip-RFKH” value is listed as “significant decreases”.
